Measured values from patent publication US12590953B2, “Methods for screening cereblon modifying compounds” (CELGENE CORPORATION, priority 2018, dated 2026).
Entries after “also recorded” stand apart in the source; their conditions may differ.

Columns and labels:
ZFP91 [1] = experiment: ZFP91 immunohistochemistry in rabbit testis; format: in vivo; settings: treated male rabbits (150 mg/kg)
Protocol: (§1) Male New Zealand white rabbits were treated with vehicle (1% Carboxymethylcellulose in deionized water), or Thalidomide at either 30 or 150 mg/kg/day for 56 days to investigate testicular degeneration. Testis were collected 24 hours after the last dose, fixed in 10% NBF, processed, embedded in paraffin and sectioned at 4 microns for immunohistochemistry.
(§2) Rabbit embryos were stained for SALL4, and mouse testis were stained for SALL4 and ZFP91. Immunohistochemistry (IHC) was performed on the Bond-III automated slide stainer (Leica Microsystems, Buffalo Grove, Ill.) using the Bond Polymer Refine Detection system (Leica Microsystems, DS9800). Formalin fixed paraffin embedded (FFPE) tissues were sectioned at four micron thick and deparaffinized on the Bond-Max instrument. Antigen retrieval was performed with Epitope Retrieval 2 (ER2, pH 9.0) for 20 min at 100° C. The slides were blocked for endogenous peroxidase activity with Peroxide Block for 5 minutes at room temperature. Sections were then incubated with the mouse monoclonal anti-SALL4 EE-30 antibody (Santa Cruz, sc-101147) at a 1:100 dilution for 60 min at room temperature, or with the rabbit monoclonal anti-ZFP91 antibody (Celgene custom clone 122-8-6) at 0.25 ug/ml. […]

ZFP91 [2] = molecular target: T1, ZFP91 (Homo sapiens, UniProt Q96JP5+Q96SW2); experiment: Degradation of ZFP91 in Lenti-x 293 cells (control substrate); format: cell-based; settings: Lenti-x 293 cell lines expressing cereblon
T1 construct: endogenous in cells; host or cells: Lenti-x 293 cell line with CRISPR-cas9 cereblon knock-out, transfected with GST-cereblon
T1 sequence (Q96JP5 2-570 limits assumed): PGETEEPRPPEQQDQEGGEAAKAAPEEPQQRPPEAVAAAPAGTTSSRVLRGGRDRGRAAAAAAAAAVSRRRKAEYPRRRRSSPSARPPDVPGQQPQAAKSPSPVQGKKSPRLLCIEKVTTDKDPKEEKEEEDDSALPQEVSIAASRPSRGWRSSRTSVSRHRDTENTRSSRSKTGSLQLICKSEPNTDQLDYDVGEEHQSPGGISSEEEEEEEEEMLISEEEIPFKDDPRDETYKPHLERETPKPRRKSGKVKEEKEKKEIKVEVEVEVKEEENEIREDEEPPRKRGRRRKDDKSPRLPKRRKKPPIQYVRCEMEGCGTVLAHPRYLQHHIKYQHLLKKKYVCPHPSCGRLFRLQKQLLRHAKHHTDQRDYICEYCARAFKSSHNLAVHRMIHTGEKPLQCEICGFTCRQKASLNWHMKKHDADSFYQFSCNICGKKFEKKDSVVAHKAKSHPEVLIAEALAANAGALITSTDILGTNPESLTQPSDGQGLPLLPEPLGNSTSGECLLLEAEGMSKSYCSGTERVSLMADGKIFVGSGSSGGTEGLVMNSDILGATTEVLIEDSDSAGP
T1 sequence (Q96SW2 whole entry): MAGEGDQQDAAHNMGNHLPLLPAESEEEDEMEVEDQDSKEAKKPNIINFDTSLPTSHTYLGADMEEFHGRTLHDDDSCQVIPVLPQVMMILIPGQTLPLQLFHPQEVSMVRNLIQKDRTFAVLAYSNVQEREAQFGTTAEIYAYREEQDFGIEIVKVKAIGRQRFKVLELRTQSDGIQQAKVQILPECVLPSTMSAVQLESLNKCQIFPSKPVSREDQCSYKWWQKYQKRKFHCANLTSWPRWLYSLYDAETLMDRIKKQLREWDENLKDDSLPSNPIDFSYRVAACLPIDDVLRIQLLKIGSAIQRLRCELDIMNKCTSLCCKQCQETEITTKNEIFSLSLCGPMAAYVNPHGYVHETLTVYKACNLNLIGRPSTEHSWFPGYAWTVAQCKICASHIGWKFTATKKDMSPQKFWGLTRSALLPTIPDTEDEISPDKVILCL
T1 sequence (Q16531 whole entry partner): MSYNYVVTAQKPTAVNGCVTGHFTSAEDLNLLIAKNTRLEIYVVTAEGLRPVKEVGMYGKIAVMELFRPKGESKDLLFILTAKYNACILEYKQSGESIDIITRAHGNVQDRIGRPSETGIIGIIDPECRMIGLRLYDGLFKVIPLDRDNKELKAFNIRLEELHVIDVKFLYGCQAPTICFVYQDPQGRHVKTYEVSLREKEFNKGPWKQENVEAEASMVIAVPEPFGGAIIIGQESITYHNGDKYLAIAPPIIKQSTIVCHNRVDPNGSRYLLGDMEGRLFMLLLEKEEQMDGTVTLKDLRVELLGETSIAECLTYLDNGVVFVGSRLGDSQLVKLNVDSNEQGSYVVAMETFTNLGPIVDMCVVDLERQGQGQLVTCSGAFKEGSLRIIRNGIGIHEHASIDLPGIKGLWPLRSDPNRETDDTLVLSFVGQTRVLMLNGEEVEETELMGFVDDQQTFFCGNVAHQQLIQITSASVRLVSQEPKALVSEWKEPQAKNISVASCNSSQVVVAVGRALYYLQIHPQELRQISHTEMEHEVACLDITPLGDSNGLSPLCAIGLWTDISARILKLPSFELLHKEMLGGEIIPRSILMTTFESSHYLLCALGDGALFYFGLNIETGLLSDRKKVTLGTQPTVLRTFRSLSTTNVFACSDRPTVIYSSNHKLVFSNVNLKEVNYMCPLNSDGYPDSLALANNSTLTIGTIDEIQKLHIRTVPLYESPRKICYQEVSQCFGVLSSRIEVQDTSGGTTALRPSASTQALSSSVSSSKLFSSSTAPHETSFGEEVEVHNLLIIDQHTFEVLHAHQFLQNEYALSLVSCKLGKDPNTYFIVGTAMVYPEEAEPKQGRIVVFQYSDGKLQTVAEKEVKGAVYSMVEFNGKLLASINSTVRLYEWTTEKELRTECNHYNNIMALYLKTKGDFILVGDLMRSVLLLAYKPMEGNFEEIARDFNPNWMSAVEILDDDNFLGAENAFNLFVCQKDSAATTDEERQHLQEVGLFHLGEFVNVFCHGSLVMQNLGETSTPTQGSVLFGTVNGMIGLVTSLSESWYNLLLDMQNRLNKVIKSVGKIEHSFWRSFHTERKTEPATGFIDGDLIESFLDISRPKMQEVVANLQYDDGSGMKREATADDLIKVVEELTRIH

SALL4 [3] = experiment: Cellular degradation of SALL4 variants in lenti-X-293 HEK cells expressing GST-CRBN; format: cell-based, human; settings: 40 μM thalidomide, 16 hours
Protocol: Cells were treated with […] (+) or DMSO vehicle control (−) as indicated for 16 hours (n=2, biological replicates).
Lenti-x-293 cells stably expressing GST-CRBN and SALL4 variants were treated with DMSO or 40 μM thalidomide for 16 hours. Cells were then wished with ice-cold 1×PBS twice, lysed in buffer A [50 mM Tris. CL, 150 mM NaCl, 1% triton-x 100, complete protease inhibitor tablet (Roche), phosphatase inhibitor tablet (Roche)]. Whole cell extracts were harvested and subjected to immunoblot analysis.

SALL4 [4] = experiment: SALL4 immunohistochemistry in rabbit testis; format: in vivo; settings: male rabbits
Protocol: as §1, §2

[5] = molecular target: T2, endogenous SALL4 in NCCIT, NETRA-2 c1.D1 and AN3-CA cancer cell lines (Homo sapiens, UniProt Q96SW2+Q9UJQ4); experiment: Degradation of endogenous SALL4 in cancer cell lines, western blot; format: cell-based; settings: 16 hour treatment; anti-SALL4 western blot
T2 construct: endogenous in cells; host or cells: NCCIT, NETRA-2 c1.D1 and AN3-CA cancer cell lines

In the case of `O=C1CCC(N2C(=O)c3ccccc3C2=O)C(=O)N1` (stereo not shown) [thalidomide], the “ZFP91 protein levels in testis” value (ZFP91 [1]) is reported as “correspondingly depleted; also recorded: caused degradation of both ZFP91 and SALL4”, the ZFP91 degradation (ZFP91 [2]) is reported as “exhibited compound-dependent degradation in all cell lines expressing cereblon” and the “Degradation of G416A SALL4” value (SALL4 [3]) is reported as “blocked the thalidomide dependent degradation of SALL4”. The “Degradation of G600A SALL4” value (SALL4 [3]) was “had no effect on SALL4 degradation”, the “SALL4 protein levels in testis” value (SALL4 [4]; 150 mg/kg/day) was “marked decrease; also recorded: caused degradation of both ZFP91 and SALL4” and the “SALL4 protein levels in testis, dose dependence” value (SALL4 [4]; 30 or 150 mg/kg/day for 56 days) was “dose-dependent decrease in SALL4 levels in the testis of male rabbits; also recorded: dose-dependent reduction of SALL4 protein levels in the testis; also recorded: dose dependent decrease in SALL4 levels in rabbit testis”. The “Degradation of endogenous SALL4” value [5] was “Significant compound-dependent degradation of endogenous SALL4 was observed”.
